From ChEMBL document CHEMBL3425509, “Design, synthesis, and biological evaluation of benzofuran- and 2,3-dihydrobenzofuran-2-carboxylic acid N-(substituted)phenylamide derivatives as anticancer agents and inhibitors of NF-κB” (Bioorg Med Chem Lett, 2015) come the findings set out here.

For test [1], the system named is NCI-H23. Put plainly: Cytotoxicity against human NCI-H23 cells assessed as growth inhibition after 72 hrs by sulforhodamine B assay. It counts as functional. Conditions: NCI-H23, 72 h. A general note: The SRB assay estimates cell density from bound dye.
The test system of test [2] is MDA-MB-231. Put plainly: Cytotoxicity against human MDA-MB-231 cells assessed as growth inhibition after 72 hrs by sulforhodamine B assay. The class given is functional. Particulars: MDA-MB-231, 72 h.
Test [3] can be described thus: Cytotoxicity against human PC3 cells assessed as growth inhibition after 72 hrs by sulforhodamine B assay. The class given is functional. Particulars: PC-3, 72 h.
The nature of test [4]: Cytotoxicity against human HCT15 cells assessed as growth inhibition after 72 hrs by sulforhodamine B assay. It counts as functional. Conditions: HCT-15, 72 h.
The test system of test [5] is ACHN. Put plainly: Cytotoxicity against human ACHN cells assessed as growth inhibition after 72 hrs by sulforhodamine B assay. It counts as functional.
A short description of test [6]: Cytotoxicity against human NUGC3 cells assessed as growth inhibition after 72 hrs by sulforhodamine B assay. The class given is functional. Particulars: NUGC-3, 72 h.
For test [7], the target named is Nuclear factor NF-kappa-B complex (Homo sapiens, UniProt P19838+Q00653+Q04206). Put plainly: Inhibition of NF-kappaB (unknown origin) transcriptional activity in LPS-induced mouse RAW264.7 cells after 1 hr by secreted alkaline phosphatase assay. The class given is cell-based.
In test [8] the test system is ACHN. Put plainly: Cytotoxicity against human ACHN cells assessed as cell viability at 10 uM after 72 hrs by sulforhodamine B assay relative to control. Particulars: read-out: Activity. It counts as functional.
Test [9] can be described thus: Cytotoxicity against human HCT15 cells assessed as cell viability at 10 uM after 72 hrs by sulforhodamine B assay relative to control. The class given is functional. Particulars: HCT-15, 72 h, read-out: Activity.
Test [10] concerns NCI-H23. Put plainly: Cytotoxicity against human NCI-H23 cells assessed as cell viability at 10 uM after 72 hrs by sulforhodamine B assay relative to control. The class given is functional. Conditions: NCI-H23, 72 h, read-out: Activity.
Test [11] in a line: Cytotoxicity against human NUGC3 cells assessed as cell viability at 10 uM after 72 hrs by sulforhodamine B assay relative to control. It counts as functional. Conditions: NUGC-3, 72 h, read-out: Activity.
Test [12] concerns the target Nuclear factor NF-kappa-B complex (Homo sapiens) (UniProt Q00653+P19838+Q04206). Put plainly: Inhibition of NF-kappaB (unknown origin) transcriptional activity in LPS-induced mouse RAW264.7 cells at 30 uM after 1 hr by secreted alkaline phosphatase assay relative to control. It counts as cell-based.
Test [13] deals with MDA-MB-231. Put plainly: Cytotoxicity against human MDA-MB-231 cells assessed as cell viability at 10 uM after 72 hrs by sulforhodamine B assay relative to control. Particulars: MDA-MB-231, 72 h, read-out: Activity. The class given is functional.
Test [14] in a line: Cytotoxicity against human PC3 cells assessed as cell viability at 10 uM after 72 hrs by sulforhodamine B assay relative to control. It counts as functional. Conditions: PC-3, 72 h, read-out: Activity.

Nuclear factor NF-kappa-B complex (Homo sapiens), sequence (P19838 whole entry, looked up): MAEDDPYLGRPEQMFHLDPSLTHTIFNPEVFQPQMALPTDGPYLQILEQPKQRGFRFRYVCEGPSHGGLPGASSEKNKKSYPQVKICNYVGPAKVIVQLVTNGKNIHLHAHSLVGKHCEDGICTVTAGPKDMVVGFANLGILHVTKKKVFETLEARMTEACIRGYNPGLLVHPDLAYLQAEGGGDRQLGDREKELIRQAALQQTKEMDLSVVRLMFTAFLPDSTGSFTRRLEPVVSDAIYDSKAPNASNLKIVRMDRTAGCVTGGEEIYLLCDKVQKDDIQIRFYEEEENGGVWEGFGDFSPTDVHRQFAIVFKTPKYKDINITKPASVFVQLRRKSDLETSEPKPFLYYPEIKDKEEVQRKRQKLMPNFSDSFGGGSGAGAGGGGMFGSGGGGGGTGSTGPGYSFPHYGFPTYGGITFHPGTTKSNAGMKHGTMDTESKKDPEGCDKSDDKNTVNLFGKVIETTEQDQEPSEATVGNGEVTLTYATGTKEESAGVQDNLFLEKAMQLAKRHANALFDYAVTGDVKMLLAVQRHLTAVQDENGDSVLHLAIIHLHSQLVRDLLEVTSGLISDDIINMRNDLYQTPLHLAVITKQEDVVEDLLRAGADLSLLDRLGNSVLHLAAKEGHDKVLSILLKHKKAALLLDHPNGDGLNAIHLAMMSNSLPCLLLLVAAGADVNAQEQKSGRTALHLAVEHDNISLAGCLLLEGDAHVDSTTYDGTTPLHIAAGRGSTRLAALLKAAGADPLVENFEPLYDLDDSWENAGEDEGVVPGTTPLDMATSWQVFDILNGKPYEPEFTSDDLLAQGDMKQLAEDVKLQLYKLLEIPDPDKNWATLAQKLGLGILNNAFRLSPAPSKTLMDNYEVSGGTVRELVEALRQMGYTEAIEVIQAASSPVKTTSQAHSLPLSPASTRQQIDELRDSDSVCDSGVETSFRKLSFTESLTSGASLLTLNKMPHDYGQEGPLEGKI
Nuclear factor NF-kappa-B complex (Homo sapiens), sequence (Q00653 whole entry, looked up): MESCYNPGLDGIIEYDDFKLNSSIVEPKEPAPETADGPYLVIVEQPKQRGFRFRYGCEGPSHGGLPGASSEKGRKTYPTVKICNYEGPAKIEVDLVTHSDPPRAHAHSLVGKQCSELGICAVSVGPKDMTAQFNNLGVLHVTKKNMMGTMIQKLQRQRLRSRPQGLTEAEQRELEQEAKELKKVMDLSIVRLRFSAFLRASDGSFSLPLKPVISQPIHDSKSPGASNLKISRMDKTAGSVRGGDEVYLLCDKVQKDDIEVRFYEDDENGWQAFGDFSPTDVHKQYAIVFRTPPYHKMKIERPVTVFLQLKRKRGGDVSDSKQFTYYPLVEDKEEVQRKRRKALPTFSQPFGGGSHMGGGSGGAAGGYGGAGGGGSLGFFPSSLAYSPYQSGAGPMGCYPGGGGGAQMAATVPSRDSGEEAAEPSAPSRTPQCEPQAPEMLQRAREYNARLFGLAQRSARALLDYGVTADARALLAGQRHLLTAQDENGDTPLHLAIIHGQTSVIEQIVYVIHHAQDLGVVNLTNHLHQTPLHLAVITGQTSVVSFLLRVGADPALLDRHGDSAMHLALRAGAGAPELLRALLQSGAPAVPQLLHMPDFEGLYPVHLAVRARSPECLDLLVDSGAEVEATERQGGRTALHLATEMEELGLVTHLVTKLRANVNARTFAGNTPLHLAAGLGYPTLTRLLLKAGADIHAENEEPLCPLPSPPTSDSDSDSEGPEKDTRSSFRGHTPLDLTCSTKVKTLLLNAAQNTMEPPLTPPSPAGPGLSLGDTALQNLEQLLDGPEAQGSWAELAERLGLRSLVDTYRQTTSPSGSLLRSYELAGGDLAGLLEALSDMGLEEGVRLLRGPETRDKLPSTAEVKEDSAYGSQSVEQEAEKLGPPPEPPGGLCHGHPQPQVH
Nuclear factor NF-kappa-B complex (Homo sapiens), sequence (Q04206 whole entry, looked up): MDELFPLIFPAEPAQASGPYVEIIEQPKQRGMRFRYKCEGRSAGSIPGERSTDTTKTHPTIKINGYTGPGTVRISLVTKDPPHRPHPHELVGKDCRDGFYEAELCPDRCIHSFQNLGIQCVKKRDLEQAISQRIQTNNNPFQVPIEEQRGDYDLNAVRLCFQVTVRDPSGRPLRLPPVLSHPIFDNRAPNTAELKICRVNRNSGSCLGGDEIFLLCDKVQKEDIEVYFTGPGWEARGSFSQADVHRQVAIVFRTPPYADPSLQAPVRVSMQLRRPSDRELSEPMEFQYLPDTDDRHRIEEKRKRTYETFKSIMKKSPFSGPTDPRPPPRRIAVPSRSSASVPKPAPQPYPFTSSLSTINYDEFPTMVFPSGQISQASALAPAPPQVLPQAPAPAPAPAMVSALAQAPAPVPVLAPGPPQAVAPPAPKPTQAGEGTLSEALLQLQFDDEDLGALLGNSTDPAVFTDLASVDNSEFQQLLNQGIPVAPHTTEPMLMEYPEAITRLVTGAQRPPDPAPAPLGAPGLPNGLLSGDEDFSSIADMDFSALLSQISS
Nuclear factor NF-kappa-B complex, sequence (P19838 1-433 limits assumed): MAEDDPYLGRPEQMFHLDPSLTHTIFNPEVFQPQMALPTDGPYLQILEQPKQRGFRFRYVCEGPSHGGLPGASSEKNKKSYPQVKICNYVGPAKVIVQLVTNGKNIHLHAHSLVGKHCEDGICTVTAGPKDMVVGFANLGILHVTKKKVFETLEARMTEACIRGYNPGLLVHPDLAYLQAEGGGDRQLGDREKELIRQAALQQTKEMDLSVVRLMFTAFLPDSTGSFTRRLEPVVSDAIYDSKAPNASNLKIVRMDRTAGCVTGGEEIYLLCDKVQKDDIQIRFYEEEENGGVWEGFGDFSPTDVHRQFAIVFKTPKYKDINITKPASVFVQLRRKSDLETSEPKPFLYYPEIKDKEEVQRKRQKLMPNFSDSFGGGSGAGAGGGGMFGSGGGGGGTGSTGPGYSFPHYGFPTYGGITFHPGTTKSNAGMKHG
Nuclear factor NF-kappa-B complex, sequence (Q00653 1-454 limits assumed): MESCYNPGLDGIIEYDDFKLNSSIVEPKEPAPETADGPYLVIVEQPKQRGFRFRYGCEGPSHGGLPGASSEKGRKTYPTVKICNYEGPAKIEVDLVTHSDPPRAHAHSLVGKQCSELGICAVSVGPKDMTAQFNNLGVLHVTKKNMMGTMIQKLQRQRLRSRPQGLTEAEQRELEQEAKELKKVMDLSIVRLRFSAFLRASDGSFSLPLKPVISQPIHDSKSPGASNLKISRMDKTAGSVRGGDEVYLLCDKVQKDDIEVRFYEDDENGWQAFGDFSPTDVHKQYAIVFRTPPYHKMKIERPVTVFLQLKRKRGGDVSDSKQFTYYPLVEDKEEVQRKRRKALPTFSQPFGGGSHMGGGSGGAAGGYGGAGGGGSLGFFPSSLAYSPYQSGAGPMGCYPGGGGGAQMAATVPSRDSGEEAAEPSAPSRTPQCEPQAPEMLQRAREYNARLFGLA
Nuclear factor NF-kappa-B complex, sequence (Q04206 whole entry): as the sequence (Q04206 whole entry, looked up) above

One may read the GI50 as the concentration at which growth is held to half of that of the control. On to `COc1cccc2c1C(=O)c1c(O)c3c(c(O)c1C2=O)C[C@@](O)(C(=O)CO)C[C@@H]3O[C@H]1C[C@H](N)[C@H](O)[C@H](C)O1` [DOXORUBICIN], for which the GI50 was found to be 400 nM in the test with NCI-H23 [1]; 560 nM in the test on MDA-MB-231 [2]; 910 nM in [3]; 450 nM in test [4]; 200 nM with ACHN [5]; 190 nM in [6].

As a reminder, the IC50 is the concentration that gives 50% inhibition. Low values mean greater potency, high ones weaker potency. As to `S=C(S)N1CCCC1` [PYRROLIDINE DITHIOCARBAMATE], the GI50 is 100 nM in the test with NCI-H23 [1]; 160 nM in the test with MDA-MB-231 [2]; 170 nM in [3]; 130 nM in test [4]; 230 nM with ACHN [5]; 140 nM in test [6]. The compound further came in with an IC50 in test [7] of 34500 nM.

What is called inhibition is the drop in the measured response relative to a control, in per cent. Read a high inhibition as strong suppression. Take `O=C(Nc1cccc(O)c1)C1Cc2ccccc2O1` (stereo unspecified): the viability at 10 µM in the test with ACHN [8] is 125%; in test [9], 97%; in the test on NCI-H23 [10], 60%; in test [11], 110%; with MDA-MB-231 [13], 63%; in test [14] it was 4%. Besides, the GI50 in test [3] was 3970 nM. The inhibition in [12] was found to be 17%.

With `O=C(Nc1ccc([N+](=O)[O-])cc1)C1Cc2ccccc2O1` (stereo unspecified), the viability at 10 µM in the test on ACHN [8] was determined as 93%; in test [9] it was 81%; in the test with NCI-H23 [10] it was 77%; in [11], 86%; in the test with MDA-MB-231 [13], 85%; in test [14] it was 10%. The GI50 in test [3] turned out to be 1860 nM. The same compound displayed an inhibition in test [12] of 34%.

Regarding `O=C(Nc1ccc(O)cc1)c1cc2ccccc2o1`, the GI50 in the test with NCI-H23 [1] came out at 2480 nM; in the test with MDA-MB-231 [2] it was 2200 nM; in test [3] it was 2680 nM; in test [4], 2370 nM; with ACHN [5], 2740 nM; in test [6], 5860 nM. Moreover, the viability at 10 µM is 10% with ACHN [8]; 18% in test [9]; 25% in the test with NCI-H23 [10]; 47% in [11]; -32% with MDA-MB-231 [13]; -31% in test [14]. Moreover, in [12], the inhibition came to 62%.

Turning to `O=C(Nc1cc(C(F)(F)F)cc(C(F)(F)F)c1)c1cc2ccccc2o1`, the viability at 10 µM stood at 95% with ACHN [8]; 98% in [9]; 101% with NCI-H23 [10]; 98% in [11]; 98% with MDA-MB-231 [13]; 110% in test [14]. Also, the inhibition in test [12] was determined as 51.5%. Besides, the IC50 in test [7] worked out at 34000 nM.

For the compound `O=C(Nc1ccc(Cl)c(Cl)c1)C1Cc2ccccc2O1` (stereo unspecified), the viability at 10 µM with ACHN [8] was determined as 109%; in test [9], 88%; in the test on NCI-H23 [10] it was 94%; in test [11], 107%; with MDA-MB-231 [13], 98%; in test [14], 99%. In [12], this compound registered an inhibition of 65%. The same compound gave an IC50 in test [7] of 23000 nM.

Regarding `COc1cc2c(cc1O)CCC(C(=O)Nc1ccccc1)O2` (stereo unspecified), the viability at 10 µM with ACHN [8] came out at 109%; in test [9], 105%; in the test with NCI-H23 [10] it was 86%; in [11] it was 99%; in the test with MDA-MB-231 [13] it was 81%; in test [14], 90%. In test [7], this compound yielded an IC50 of 37200 nM.

Turning to `COc1ccc(NC(=O)c2cc3ccccc3o2)cc1`, the viability at 10 µM came to 109% with ACHN [8]; 87% in test [9]; 101% in the test with NCI-H23 [10]; 102% in test [11]; 110% in the test on MDA-MB-231 [13]; 111% in test [14]. The same compound displayed an inhibition in test [12] of 39.5%.

For the compound `Cc1cc(C)cc(NC(=O)c2cc3ccccc3o2)c1`, the viability at 10 µM in the test with ACHN [8] is 101%; in test [9], 79%; with NCI-H23 [10], 99%; in test [11], 93%; in the test with MDA-MB-231 [13], 94%; in test [14] it was 94%. The inhibition in [12] came out at 70%.

On to `Cc1ccc(NC(=O)c2cc3ccccc3o2)cc1C`, for which the viability at 10 µM in the test on ACHN [8] was determined as 103%; in test [9] it was 95%; with NCI-H23 [10] it was 100%; in test [11], 91%; in the test on MDA-MB-231 [13], 92%; in [14], 92%. The compound further registered an inhibition in test [12] of 70%.
